Experimental data published in patent US20260306631A1, “CHIMERIC RECEPTORS” (St. Jude Children's Research Hospital, Inc., priority 2023, published 2026).

Key:
[1] = tested on: Jun.EpoR ZipRs or the Jun.GHR ZipRs; assay: Ability of ZipRs to phosphorylate STAT5 under ruxolitinib treatment, T cells expressing Jun.EpoR ZipRs or Jun.GHR ZipR; type: cell-based, human; conditions: role: inhibitor; increasing concentrations of ruxolitinib
From the text: (§1) FIGS. 2A-2F show Jun leucine zipper-based homodimers activating STAT5 resulting in improved T cell viability, and that they are inhibited by ruxolitinib. (FIGS. 2A and 2B) pSTAT5 geometric mean fluorescence intensity (FIG. 2A) or percent positive (FIG. 2B) in Jun ZipR+ cells (N=4 biological replicates, One-way ANOVA, ** p<0.01, *** p<0.001, **** p<0.0001). (FIGS. 2C-2E) Frequency of pSTAT5+ cells following 48-hour treatment with indicated concentrations of ruxolitinib in vitro (N=3 biological replicates). (FIG. 2F) Frequency of dead cells (Annexin V+ Dead+), apoptotic cells (Annexin V+ Dead-), necrotic cells (Annexin V− Dead+), and live cells (Annexin V− Dead-) after 7 days of cytokine starvation without or with treatment of 5 M ruxolitinib in vitro (N=2 biological replicates, two-way ANOVA, **** p<0.0001 on Live cell population)
(§2) As a potential safety switch for the constitutively active homodimeric ZipRs, T cells expressing Jun.EpoR ZipRs or the Jun. GHR ZipRs were treated with increasing concentrations of ruxolitinib, an FDA-approved JAK1/2 inhibitor. All ZipRs were inhibited by ruxolitinib (FIGS. 2C-2E) as judged by their ability to phosphorylate STAT5.
(§3) Generation of ZipR transduced T cells. […]

[2] = tested on: Jun.EpoR.del3 (ZipEpoR.del3: cJunzip.hEpoRmut.del3, cJun SEQ ID NO: 9, hEpoRmut SEQ ID NO: 16; 3 amino acid TM domain deletion); assay: Frequency of pSTAT5+ cells after ruxolitinib treatment, T cells expressing Jun.EpoR.del3 ZipR; type: cell-based; conditions: role: inhibitor; STAT5 phosphorylation (pSTAT5+ cells), human T cells, 48-hour treatment
From the text: as §1
(§4) The following constructs were generated and tested: • i) Jun.IL-2Rβ chain constructs with 0 to 6 alanine insertions to interrogate all potential intracellular orientations; • ii) Jun.EpoR constructs with 0, 1, 3, or 5 amino acid TM domain deletions to interrogate receptors with 0, 100, 300, or 500 degrees of rotation; • iii) Jun. GHR; and • iv) Jun. 18B.MyD88 fused to EpoR or GHR (Jun.MyD88.EpoR or Jun.MyD88.GHR).
(§5) As a potential safety switch for the constitutively active homodimeric ZipRs, T cells expressing Jun.EpoR ZipRs or the Jun. […]

[3] = tested on: Jun.GHR (ZipGHR: cJunzip.hGHR, cJun SEQ ID NO: 9, hGHR SEQ ID NO: 20); assay: Frequency of pSTAT5+ cells after ruxolitinib treatment, T cells expressing Jun.GHR ZipR; type: cell-based; conditions: role: inhibitor; STAT5 phosphorylation (pSTAT5+ cells), human T cells, 48-hour treatment
From the text: as §1, §2, §3

[4] = tested on: Jun.EpoR.del1 (ZipEpoR.del1: cJunzip.hEpoRmut.del1, cJun SEQ ID NO: 9, hEpoRmut SEQ ID NO: 14; 1 amino acid TM domain deletion); assay: Frequency of pSTAT5+ cells after ruxolitinib treatment, T cells expressing Jun.EpoR.del1 ZipR; type: cell-based; conditions: role: inhibitor; STAT5 phosphorylation (pSTAT5+ cells), human T cells, 48-hour treatment
From the text: as §1, §4, §5

[5] = tested on: Jun.EpoR (ZipEpoR: cJunzip.hEpoRmut, cJun SEQ ID NO: 9, hEpoRmut SEQ ID NO: 10); assay: Frequency of pSTAT5+ cells after ruxolitinib treatment, T cells expressing Jun.EpoR ZipR; type: cell-based; conditions: role: inhibitor; STAT5 phosphorylation (pSTAT5+ cells), human T cells, 48-hour treatment
From the text: as §1, §2, §3

[6] = tested on: Jun.EpoR- or Jun.GHR ZipRs expressing human T cells; assay: T cell survival after 7-day cytokine starvation with concurrent ruxolitinib treatment; type: cell-based; conditions: role: inhibitor, 7 days without cytokines, printed as 5 M in FIG. 2F legend
From the text: as §1
In addition to activation of STAT5, the ability for Jun ZipRs to improve T cell function was determined. Jun.EpoR- or Jun.GHR ZipRs expressing human T cells were cultured without cytokines for 7 days in vitro before quantifying the frequency of live, dead, and dying cells. ZipR signaling allowed cells to survive 7-day cytokine starvation, which was abrogated by concurrent treatment with ruxolitinib (FIG. 2F). […]
Cytokine starvation. […] To quantify apoptosis, cells were labeled with annexin V (BD Biosciences) and eBioscience Fixable viability dye (Invitrogen).

[7] = tested on: Jun.EpoR.del5 (ZipEpoR.del5: cJunzip.hEpoRmut.del5, cJun SEQ ID NO: 9, hEpoRmut SEQ ID NO: 18; 5 amino acid TM domain deletion); assay: Frequency of pSTAT5+ cells after ruxolitinib treatment, T cells expressing Jun.EpoR.del5 ZipR; type: cell-based; conditions: role: inhibitor; STAT5 phosphorylation (pSTAT5+ cells), human T cells, 48-hour treatment
From the text: as §1, §4, §5

EC50 [2]: 57.2 nM | EC50 [3]: 6.3 nM | EC50 [4]: 483 nM | EC50 [5]: 668 nM | EC50 [7]: 94.2 nM
SMILES: N#CC[C@H](C1CCCC1)n1cc(-c2ncnc3[nH]ccc23)cn1 [Ruxolitinib, ruxolitinib]
inhibition of ZipRs as judged by their ability to phosphorylate STAT5 [1]: inhibited | survival of 7-day cytokine starvation by ZipR signaling [6]: abrogated
